Source: ChEMBL document CHEMBL1681651, “A broad spectrum anticancer nucleoside with selective toxicity against human colon cells in vitro” (2011)

How the values were obtained:
Type in all cases: functional
[1] = tested on: 786-0; assay: Growth inhibition of human 786-0 cells assessed as cell growth at 1 uM after 48 hrs by SRB assay; conditions: 786-0, 48 h, read-out: Activity
[2] = tested on: ACHN; assay: Growth inhibition of human ACHN cells assessed as cell growth at 1 uM after 48 hrs by SRB assay; conditions: read-out: Activity
[3] = tested on: HOP-62; assay: Growth inhibition of human HOP62 cells assessed as cell growth at 10 uM after 48 hrs by SRB assay; conditions: HOP-62, 48 h, read-out: Activity
[4] = tested on: NCI-H23; assay: Growth inhibition of human NCI-H23 cells assessed as cell growth at 10 uM after 48 hrs by SRB assay; conditions: NCI-H23, 48 h, read-out: Activity
[5] = tested on: COLO 205; assay: Growth inhibition of human COLO205 cells assessed as cell growth at 10 uM after 48 hrs by SRB assay; conditions: COLO 205, 48 h, read-out: Activity
[6] = tested on: NCI-H226; assay: Growth inhibition of human NCI-H226 cells after 48 hrs by […] growth inhibition assay; conditions: NCI-H226, 48 h
[7] = tested on: NCI-H23; assay: Growth inhibition of human NCI-H23 cells after 48 hrs by […] growth inhibition assay; conditions: NCI-H23, 48 h
[8] = tested on: SNB-75; assay: Growth inhibition of human SNB75 cells after 48 hrs by […] growth inhibition assay; conditions: SNB-75, 48 h
[9] = tested on: IGROV-1; assay: Growth inhibition of human IGROV1 cells after 48 hrs by […] growth inhibition assay; conditions: IGROV-1, 48 h
[10] = tested on: SK-OV-3; assay: Growth inhibition of human SKOV3 cells after 48 hrs by […] growth inhibition assay; conditions: SK-OV-3, 48 h
[11] = tested on: A498; assay: Growth inhibition of human A498 cells after 48 hrs by […] growth inhibition assay; conditions: A498, 48 h
[12] = tested on: CCRF-CEM; assay: Growth inhibition of human CCRF-CEM cells assessed as cell growth at 0.1 uM after 48 hrs by SRB assay; conditions: read-out: Activity
[13] = Growth inhibition of human […] cells assessed as cell growth at 0.1 uM after 48 hrs by SRB assay; conditions: read-out: Activity
[14] = tested on: HCT-15; assay: Growth inhibition of human HCT15 cells assessed as cell growth at 0.1 uM after 48 hrs by SRB assay; conditions: HCT-15, 48 h, read-out: Activity
[15] = tested on: IGROV-1; assay: Growth inhibition of human IGROV1 cells assessed as cell growth at 0.1 uM after 48 hrs by SRB assay; conditions: IGROV-1, 48 h, read-out: Activity
[16] = tested on: DU-145; assay: Growth inhibition of human DU145 cells assessed as cell growth at 0.1 uM after 48 hrs by SRB assay; conditions: DU-145, 48 h, read-out: Activity
[17] = tested on: MCF7; assay: Growth inhibition of human MCF7 cells assessed as cell growth at 0.1 uM after 48 hrs by SRB assay; conditions: MCF7, 48 h, read-out: Activity
[18] = tested on: NCI/ADR-RES; assay: Growth inhibition of human NCI/ADR-RES cells assessed as cell growth at 0.1 uM after 48 hrs by SRB assay; conditions: read-out: Activity
[19] = tested on: LOX IMVI; assay: Growth inhibition of human LOXIMVI cells assessed as cell growth at 10 uM after 48 hrs by SRB assay; conditions: read-out: Activity
[20] = tested on: OVCAR-5; assay: Growth inhibition of human OVCAR5 cells assessed as cell growth at 10 uM after 48 hrs by SRB assay; conditions: OVCAR-5, 48 h, read-out: Activity
[21] = tested on: TK-10; assay: Growth inhibition of human TK10 cells assessed as cell growth at 10 uM after 48 hrs by SRB assay; conditions: TK-10, 48 h, read-out: Activity
[22] = tested on: NCI-H522; assay: Growth inhibition of human NCI-H522 cells assessed as cell growth at 100 uM after 48 hrs by SRB assay; conditions: NCI-H522, 48 h, read-out: Activity
[23] = tested on: COLO 205; assay: Growth inhibition of human COLO205 cells assessed as cell growth at 100 uM after 48 hrs by SRB assay; conditions: COLO 205, 48 h, read-out: Activity
[24] = tested on: SNB-19; assay: Growth inhibition of human SNB19 cells assessed as cell growth at 100 uM after 48 hrs by SRB assay; conditions: SNB-19, 48 h, read-out: Activity
[25] = tested on: SNB-75; assay: Growth inhibition of human SNB75 cells assessed as cell growth at 100 uM after 48 hrs by SRB assay; conditions: SNB-75, 48 h, read-out: Activity
[26] = tested on: UACC-62; assay: Growth inhibition of human UACC62 cells assessed as cell growth at 100 uM after 48 hrs by SRB assay; conditions: UACC-62, 48 h, read-out: Activity
[27] = tested on: SK-OV-3; assay: Growth inhibition of human SKOV3 cells assessed as cell growth at 100 uM after 48 hrs by SRB assay; conditions: SK-OV-3, 48 h, read-out: Activity
[28] = tested on: A549; assay: Growth inhibition of human A549 cells assessed as cell growth at 1 mM after 48 hrs by SRB assay; conditions: A549, 48 h, read-out: Activity
[29] = tested on: HCC 2998; assay: Growth inhibition of human HCC2998 cells assessed as cell growth at 1 mM after 48 hrs by SRB assay; conditions: HCC 2998, 48 h, read-out: Activity
[30] = tested on: SF-268; assay: Growth inhibition of human SF268 cells assessed as cell growth at 1 mM after 48 hrs by SRB assay; conditions: SF-268, 48 h, read-out: Activity
[31] = tested on: T47D; assay: Growth inhibition of human T47D cells assessed as cell growth at 0.1 uM after 48 hrs by SRB assay; conditions: read-out: Activity
[32] = tested on: HT-29; assay: Growth inhibition of human HT-29 cells assessed as cell growth at 1 uM after 48 hrs by SRB assay; conditions: HT-29, 48 h, read-out: Activity
[33] = tested on: OVCAR-4; assay: Growth inhibition of human OVCAR4 cells assessed as cell growth at 1 uM after 48 hrs by SRB assay; conditions: OVCAR-4, 48 h, read-out: Activity
[34] = read-out: LC50 (the source's name)
[35] = read-out: pLC50 (the source's name) (converted)

CNC(=O)NC[C@H]1O[C@@H](n2cnc3c(NC(=O)Nc4ccccc4)ncnc32)[C@H](O[Si](C)(C)C(C)(C)C)[C@@H]1CC(=O)N(C)OC
growth at 1 µM [1]: 92%
growth at 1 µM [2]: 102%
growth at 10 µM [3]: 86%
growth at 10 µM [4]: 99%
growth at 10 µM [5]: 90%
GI50 ([6]; read-out: GI50): 41.9 µM
CC50 [6, 34]: > 100 µM
TGI ([6]; read-out: TGI): > 100 µM
GI50 ([6]; read-out: pGI50 (converted)): 41.7 µM
CC50 [6, 35]: > 100 µM
TGI ([6]; read-out: pTGI (converted)): > 100 µM
GI50 ([7]; read-out: GI50): 57.2 µM
CC50 [7, 34]: > 100 µM
TGI ([7]; read-out: TGI): > 100 µM
GI50 ([7]; read-out: pGI50 (converted)): 57.5 µM
CC50 [7, 35]: > 100 µM
TGI ([7]; read-out: pTGI (converted)): > 100 µM
GI50 ([8]; read-out: GI50): 12.7 µM
CC50 [8, 34]: > 100 µM
TGI ([8]; read-out: TGI): > 100 µM
GI50 ([8]; read-out: pGI50 (converted)): 12.9 µM
CC50 [8, 35]: > 100 µM
TGI ([8]; read-out: pTGI (converted)): > 100 µM
GI50 ([9]; read-out: GI50): 3.72 µM
CC50 [9, 34]: > 100 µM
TGI ([9]; read-out: TGI): 65.7 µM
GI50 ([9]; read-out: pGI50 (converted)): 3.72 µM
CC50 [9, 35]: > 100 µM
TGI ([9]; read-out: pTGI (converted)): 66.1 µM
GI50 ([10]; read-out: GI50): 52.7 µM
CC50 [10, 34]: > 100 µM
TGI ([10]; read-out: TGI): > 100 µM
GI50 ([10]; read-out: pGI50 (converted)): 52.5 µM
CC50 [10, 35]: > 100 µM
TGI ([10]; read-out: pTGI): > 100 µM
GI50 ([11]; read-out: GI50): 3.87 µM
CC50 [11, 34]: > 100 µM
TGI ([11]; read-out: TGI): 40.3 µM
GI50 ([11]; read-out: pGI50 (converted)): 3.89 µM
CC50 [11, 35]: > 100 µM
TGI ([11]; read-out: pTGI (converted)): 40.7 µM
growth at 0.1 µM [12]: 101%
growth at 0.1 µM [13]: 80%
growth at 0.1 µM [14]: 96%
growth at 0.1 µM [15]: 89%
growth at 0.1 µM [16]: 107%
growth at 0.1 µM [17]: 91%
growth at 0.1 µM [18]: 109%
growth at 10 µM [19]: 94%
growth at 10 µM [20]: 92%
growth at 10 µM [21]: 104%
growth at 100 µM [22]: 51%
growth at 100 µM [23]: 55%
growth at 100 µM [24]: 61%
growth at 100 µM [25]: 54%
growth at 100 µM [26]: 69%
growth at 100 µM [27]: 82%
growth at 1000 µM [28]: 27%
growth at 1000 µM [29]: 33%
growth at 1000 µM [30]: 20%
growth at 0.1 µM [31]: 90%
growth at 1 µM [32]: 107%
growth at 1 µM [33]: 100%

CCOC(=O)C[C@H]1[C@@H](O[Si](C)(C)C(C)(C)C)[C@H](n2cnc3c(NC(=O)Nc4ccccc4)ncnc32)O[C@@H]1CNC(=O)NC
growth at 1 µM [1]: 83%
growth at 1 µM [2]: 97%
growth at 10 µM [3]: 97%
growth at 10 µM [4]: 100%
growth at 10 µM [5]: 93%
GI50 ([6]; read-out: GI50): > 100 µM
CC50 [6, 34]: > 100 µM
TGI ([6]; read-out: TGI): > 100 µM
GI50 ([6]; read-out: pGI50 (converted)): > 100 µM
CC50 [6, 35]: > 100 µM
TGI ([6]; read-out: pTGI (converted)): > 100 µM
GI50 ([7]; read-out: GI50): 33.3 µM
CC50 [7, 34]: > 100 µM
TGI ([7]; read-out: TGI): > 100 µM
GI50 ([7]; read-out: pGI50 (converted)): 33.1 µM
CC50 [7, 35]: > 100 µM
TGI ([7]; read-out: pTGI (converted)): > 100 µM
GI50 ([8]; read-out: GI50): 4.56 µM
CC50 [8, 34]: > 100 µM
TGI ([8]; read-out: TGI): > 100 µM
GI50 ([8]; read-out: pGI50 (converted)): 4.57 µM
CC50 [8, 35]: > 100 µM
TGI ([8]; read-out: pTGI (converted)): > 100 µM
GI50 ([9]; read-out: GI50): 3.85 µM
CC50 [9, 34]: 79.2 µM
TGI ([9]; read-out: TGI): 18 µM
GI50 ([9]; read-out: pGI50 (converted)): 3.89 µM
CC50 [9, 35]: 79.4 µM
TGI ([9]; read-out: pTGI (converted)): 18.2 µM
GI50 ([10]; read-out: GI50): 21 µM
CC50 [10, 34]: > 100 µM
TGI ([10]; read-out: TGI): > 100 µM
GI50 ([10]; read-out: pGI50 (converted)): 20.9 µM
CC50 [10, 35]: > 100 µM
TGI ([10]; read-out: pTGI): > 100 µM
GI50 ([11]; read-out: GI50): 3.34 µM
CC50 [11, 34]: > 100 µM
TGI ([11]; read-out: TGI): 17.1 µM
GI50 ([11]; read-out: pGI50 (converted)): 3.31 µM
CC50 [11, 35]: > 100 µM
TGI ([11]; read-out: pTGI (converted)): 17 µM
growth at 0.1 µM [12]: 96%
growth at 0.1 µM [13]: 77%
growth at 0.1 µM [14]: 99%
growth at 0.1 µM [15]: 94%
growth at 0.1 µM [16]: 110%
growth at 0.1 µM [17]: 96%
growth at 0.1 µM [18]: 105%
growth at 10 µM [19]: 93%
growth at 10 µM [20]: 95%
growth at 10 µM [21]: 105%
growth at 100 µM [22]: 32%
growth at 100 µM [23]: 20%
growth at 100 µM [24]: 82%
growth at 100 µM [25]: 32%
growth at 100 µM [26]: 82%
growth at 100 µM [27]: 66%
growth at 1000 µM [28]: -58%
growth at 1000 µM [29]: 62%
growth at 1000 µM [30]: -53%
growth at 0.1 µM [31]: 91%
growth at 1 µM [32]: 105%
growth at 1 µM [33]: 103%

CNC(=O)OC[C@H]1O[C@@H](n2cnc3c(NC(=O)Nc4ccccc4)ncnc32)[C@H](O[Si](C)(C)C(C)(C)C)[C@@H]1O[Si](C)(C)C(C)(C)C
growth at 10 µM [3]: 104%
growth at 10 µM [4]: 98%
growth at 10 µM [5]: 106%
growth at 10 µM [19]: 87.4%
growth at 10 µM [20]: 120%
growth at 10 µM [21]: 96%
